Results published in publication PMC10629583, “Specific inhibition of an anticancer target, polo-like kinase 1, by allosterically dismantling its mechanism of substrate recognition” (Proceedings of the National Academy of Sciences of the …, 2023).
Entries after “also recorded” stand apart in the source; their conditions may differ. Where two headings read alike, the source gives them in different places. Where no end group is shown, it is not given here. [ ]: non-standard residue; d: D form. pT = C[C@@H](OP(=O)(O)O)[C@H](N)C(=O)O

How the values were obtained:
[1] = Conversion of Allopole to Allopole-A in buffers ± GSH (LC-MS); assay type: physicochemical; conditions: 100 µM Allopole, room temperature, 1 h
Description: High-performance liquid chromatography (HPLC)/high-resolution mass spectrometry was used to determine the products derived from investigational drugs incubated under various conditions by measuring their exact masses. Thereafter, 20 μL aliquots of several drug preparations in either DMSO or aqueous reaction solutions were diluted 2:1 in ethanol, followed by centrifugation at 15,000 × g for 5 min. The supernatant was then injected on a Thermo Vanquish liquid chromatograph coupled to a Thermo Q Exactive Orbitrap mass spectrometer (Thermo Fisher Scientific). The conditions for the analysis are listed as follows.
The analytes were identified using the Dmass between the predicted and measured exact monoisotopic mass for the protonated molecular ions applied to the empirical formula algorithm in the Qual Browser application of the Xcalibur software (Themo Scientific). Selected ions from the base peak chromatogram were extracted for integration of peak areas. The relative amounts of each analyte to the sum total were calculated to estimate conversion of and prodrug under the specific conditions to breakdown products.
Table S2. Conversion of Allopole to Allopole-A under various buffer conditions, room
Buffers* Compounds detected
Allopole-A Allopole-A (-S) Allopole (-Cl) Allopole
* Buffer #1: 20 mM Tris (pH 8.0), 50 mM NaCl, 1 mM EDTA, 1% DMSO
Buffer #2: 1 x PBS (pH 7.4), 1 mM EDTA, 1% DMSO
Buffer #3: 20 mM HEPES (pH 7.0), 50 mM NaCl, 1 mM EDTA, 1% DMSO
Samples were prepared by incubating 100 µM of Allopole in the indicated buffer conditions in the
absence or presence of 5 mM GSH for 1 h at room temperature. Note that in the absence of GSH,

[2] = tested on: L363 cells; parameters: method as in Park, J.E., et al. (1); conditions: MTS, 48 h treatment, ref Park, J.E., et al. (1), cited from earlier work
[3] = Solubility in PBS (imaging of insoluble particles, dynamic light scattering); assay type: physicochemical; conditions: PBS buffer (pH 7.4)
Description: All samples were analyzed after adjusting the concentration to 100 μM solution in the PBS buffer (pH 7.4) containing 1% DMSO. The measurements were carried out at 25 °C using the DynaPro NanoStar system (Wyatt Technology). The intensity of the scattered light was measured as a function of time, and the resulting data were used to calculate the size and distribution of the particles in the sample. Collected data were analyzed using the DYNAMICS software to calculate the mean size and polydispersity index of the particles in the sample. At least three repeat measurements were performed to ensure that the results were accurate and reproducible.
Fig. S1. Solubility and activity of Allopole and its related compounds. (A) Images showing insoluble
particles of 200 µM of the indicated compounds dissolved in the PBS buffer. The aggregates of […]

[4] = molecular target: T1, Plk2 PBD (PBD2) (Homo sapiens, UniProt Q9NYY3); experiment: FP-based inhibition assay, PBD2; assay type: binding; conditions: bacterially expressed purified PBD, FITC-ligand 15 nM, PBD at EC85
T1 construct: Purification of PBD2-His (355–685) (pKM3358) and its S652F mutant (pKM7980); His (C); made in house; host or cells: bacteria (E. coli)
T1 sequence (Q9NYY3 355-685): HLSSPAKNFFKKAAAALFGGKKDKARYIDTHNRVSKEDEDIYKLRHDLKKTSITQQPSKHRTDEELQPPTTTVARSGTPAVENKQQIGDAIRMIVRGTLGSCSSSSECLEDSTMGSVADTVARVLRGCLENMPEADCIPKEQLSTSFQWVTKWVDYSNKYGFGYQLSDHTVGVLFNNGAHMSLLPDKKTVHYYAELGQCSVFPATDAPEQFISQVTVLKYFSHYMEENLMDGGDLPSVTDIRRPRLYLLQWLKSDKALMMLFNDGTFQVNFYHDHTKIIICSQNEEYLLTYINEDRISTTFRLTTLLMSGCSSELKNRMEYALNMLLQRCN
Description: (§1) FP assays were carried out essentially as described previously ([35], [36]). […] All the samples were analyzed approximately 30 min after reaction in a 384-well format using the SpectraMax Paradigm multimode microplate detection platform (Molecular Devices). Data were analyzed after carrying out at least three independent experiments using GraphPad Prism software version 8.

[5] = molecular target: T2, Plk3 PBD (PBD3) (Homo sapiens, UniProt Q9H4B4); experiment: FP-based inhibition assay, PBD3; assay type: binding; conditions: bacterially expressed purified PBD, FITC-ligand 15 nM, PBD at EC85
T2 construct: MBP-PBD3-His (335–646) (pKM3359) and its A612F (pKM7981); His (C); made in house; host or cells: bacteria (E. coli)
T2 sequence (Q9H4B4 335-646): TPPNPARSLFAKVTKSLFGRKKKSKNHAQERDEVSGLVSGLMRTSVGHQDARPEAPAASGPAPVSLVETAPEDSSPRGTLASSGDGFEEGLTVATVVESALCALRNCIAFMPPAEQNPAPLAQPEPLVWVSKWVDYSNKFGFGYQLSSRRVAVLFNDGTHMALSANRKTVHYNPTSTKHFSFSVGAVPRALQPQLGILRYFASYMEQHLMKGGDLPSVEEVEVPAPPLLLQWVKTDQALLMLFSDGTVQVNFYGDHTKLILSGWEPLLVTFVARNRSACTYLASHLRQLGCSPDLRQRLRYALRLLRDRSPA
Description: FP assays were carried out essentially as described previously ([35], [36]). FITC-conjugated ligands (15 nM) were mixed with PBDs at their EC85 concentrations. All the samples were analyzed approximately 30 min after reaction in a 384-well format using the SpectraMax Paradigm multimode microplate detection platform (Molecular Devices). Data were analyzed after carrying out at least three independent experiments using GraphPad Prism software version 8.

[6] = molecular target: T3, Plk1 PBD (PBD1) (Homo sapiens, UniProt P53350); experiment: FP-based inhibition assay, PBD1; assay type: binding; conditions: FP, bacterially expressed purified PBD, FITC-ligand 15 nM, PBD at EC85; read-out: PBD1 IC50 ± SD
T3 construct: constructs expressing PBD1 (residues 345–603) WT (pKM7650); His; TEV site (N); made in house; host or cells: bacteria (E. coli)
T3 sequence (P53350 345-603): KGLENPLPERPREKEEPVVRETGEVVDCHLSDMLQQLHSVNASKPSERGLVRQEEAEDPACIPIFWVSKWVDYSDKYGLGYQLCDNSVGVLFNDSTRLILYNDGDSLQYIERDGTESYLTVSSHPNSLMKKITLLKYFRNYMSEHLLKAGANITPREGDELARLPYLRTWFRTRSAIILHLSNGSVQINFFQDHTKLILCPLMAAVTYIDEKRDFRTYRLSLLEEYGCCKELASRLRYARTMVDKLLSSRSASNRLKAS
Description: as §1

[7] = molecular target: T4, full-length Plk1 (Homo sapiens, UniProt P53350); conditions: total lysates from HEK293A cells expressing full-length Plk1; ref Park, J.E., et al. (1); read-out: Anti-Plk1 (full length) ELISA (IC50) Mean ± SEM; cited from earlier work
T4 construct: expressed in transfected cells; host or cells: HEK293A cells infected with adenovirus; total lysate
T4 sequence (P53350 whole entry): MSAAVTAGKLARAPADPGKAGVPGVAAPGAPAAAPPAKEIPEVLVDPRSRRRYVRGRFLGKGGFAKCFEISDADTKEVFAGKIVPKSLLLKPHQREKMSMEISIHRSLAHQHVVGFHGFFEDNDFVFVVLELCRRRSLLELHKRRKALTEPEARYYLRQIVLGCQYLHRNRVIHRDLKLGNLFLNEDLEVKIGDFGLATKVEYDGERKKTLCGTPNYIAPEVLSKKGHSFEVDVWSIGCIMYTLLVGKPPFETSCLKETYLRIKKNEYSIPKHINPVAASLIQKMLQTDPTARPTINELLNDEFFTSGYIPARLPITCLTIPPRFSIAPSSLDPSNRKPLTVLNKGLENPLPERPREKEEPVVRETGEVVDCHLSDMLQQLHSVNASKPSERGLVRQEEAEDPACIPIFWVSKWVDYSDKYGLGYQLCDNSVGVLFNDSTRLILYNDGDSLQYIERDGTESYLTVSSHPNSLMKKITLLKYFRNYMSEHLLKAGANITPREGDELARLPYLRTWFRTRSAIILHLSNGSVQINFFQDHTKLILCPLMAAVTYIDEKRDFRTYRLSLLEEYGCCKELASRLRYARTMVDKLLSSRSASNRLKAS

[8] = tested on: L363 cells; experiment: MTS cell viability assay, L363 cells; assay type: cell-based; conditions: 48 h treatment, read-out: Cell efficacy (GI50) Mean ± SD
[9] = molecular target: T4, full-length Plk1; experiment: ELISA-based PBD1-binding inhibition assay; conditions: total lysates from HEK293A cells expressing full-length Plk1; biotinylated PBIP1 p-T78 peptide; read-out: Anti-Plk1 (full length) ELISA (IC50) Mean ± SEM
[10] = molecular target: T5, human His-Plk1 (Homo sapiens, UniProt P53350); experiment: In vitro Plk1 kinase assay (casein, 32P); assay type: biochemical; conditions: casein substrate
T5 construct: His (N); purchased Sino Biological; host or cells: Sf9
T5 sequence (P53350 whole entry): as above
Description: Kinase reactions were carried out in two steps. First, Sf9-purified 0.2 µg of human His-Plk1 (Sino Biological) was preincubated in a kinase cocktail [50 mM Tris-Cl (pH 7.5), 10 mM MgCl2, 2 mM dithiothreitol, 2 mM EGTA, and 27 mM p-nitrophenylphosphate] in the presence of either Allopole-A or p-13mer PBIP peptide for 20 min at 25 °C. The samples were then added with 1 µg of dephosphorylated casein (Sigma) and 1.25 µM of ATP (1.25 µCi of [γ^32P] ATP, 1Ci = 37 GBq) and reacted for additional 30 min at 30 °C. The reactions were terminated by the addition of 5× Laemmli SDS sample buffer, separated by 10% SDS-PAGE, and analyzed by autoradiography. To quantify the γ^32P signals, appropriate bands were excised from dried SDS-PAGE gels and analyzed by a liquid scintillation counter (Beckman model LS 6500).

[11] = Buffer #1 (20 mM Tris pH 8.0), no GSH
[12] = Buffer #2 (1 x PBS pH 7.4), no GSH
[13] = Buffer #3 (20 mM HEPES pH 7.0), no GSH

Cn1cnc([N+](=O)[O-])c1Sc1nnc2n(CC3CC3)c(=O)c3sccc3n12 [Allopole (-Cl)]
Compounds detected [1, 11]: 0.0 µmol/L | Compounds detected, % of total [1, 11]: 0.0% | Compounds detected, pk area [1, 11]: 4.85E+04 | Compounds detected ([1]; Buffer #1 + 5 mM GSH): 0.5 µmol/L | Compounds detected, % of total ([1]; Buffer #1 + 5 mM GSH): 0.5% | Compounds detected, pk area ([1]; Buffer #1 + 5 mM GSH): 6.89E+06 | Compounds detected [1, 12]: 0.0 µmol/L | Compounds detected, % of total [1, 12]: 0.0% | Compounds detected, pk area [1, 12]: 2.42E+04 | Compounds detected ([1]; Buffer #2 + 5 mM GSH): 0.3 µmol/L | Compounds detected, % of total ([1]; Buffer #2 + 5 mM GSH): 0.3% | Compounds detected, pk area ([1]; Buffer #2 + 5 mM GSH): 2.57E+06 | Compounds detected [1, 13]: 0.0 µmol/L | Compounds detected, % of total [1, 13]: 0.0% | Compounds detected, pk area [1, 13]: 0.00E+00 | Compounds detected ([1]; Buffer #3 + 5 mM GSH): 0.4 µmol/L | Compounds detected, % of total ([1]; Buffer #3 + 5 mM GSH): 0.4% | Compounds detected, pk area ([1]; Buffer #3 + 5 mM GSH): 1.11E+06

CCCn1c(=O)c2sc(C)cc2n2c(=S)[nH]nc12 [compound 3]
Cell efficacy (GI50) Mean ± SD [2]: failed to induce any significant antiproliferation effect; also recorded: N. S | Solubility (in words) [3]: lower-than-acceptable solubility | PBD2 IC50 ± SD [4]: N. S. | PBD3 IC50 ± SD [5]: N. S. | IC50 [6]: 0.0102 µM | IC50 [7]: 2.15 µM

CCCn1c(=O)c2sc(C)cc2n2c(Sc3c([N+](=O)[O-])ncn3C)nnc12 [compound 4]
GI50 ([2]; read-out: Cell efficacy (GI50) Mean ± SD): 4.88 ± 0.1 µM | Solubility (in words) [3]: lower-than-acceptable solubility; also recorded: low solubility | IC50 [7]: > 50 µM

CCCn1c(=O)c2oc3ccccc3c2n2c(Sc3c([N+](=O)[O-])ncn3C)nnc12 [compound 8]
GI50 [8]: 8.31 ± 0.56 µM | IC50 [9]: > 50 µM

CCCn1c(=O)c2oc3cccc(F)c3c2n2c(Sc3c([N+](=O)[O-])ncn3C)nnc12 [compound 10]
GI50 [8]: 7.53 ± 0.43 µM | IC50 [9]: > 50 µM

CCCn1c(=O)c2sccc2n2c(Sc3c([N+](=O)[O-])ncn3C)nnc12 [compound 12]
GI50 [8]: 8.4 ± 0.74 µM | Solubility (in words) [3]: moderately; also recorded: moderate | IC50 [9]: > 50 µM

CCCn1c(=O)c2sc(Cl)cc2n2c(Sc3c([N+](=O)[O-])ncn3C)nnc12 [compound 14]
GI50 [8]: 6.04 ± 0.17 µM | IC50 [9]: > 50 µM

CCCn1c(=O)c2sc(C(C)(C)C)cc2n2c(Sc3c([N+](=O)[O-])ncn3C)nnc12 [compound 16]
GI50 [8]: 4.19 ± 0.15 µM | Solubility (in words) [3]: moderately; also recorded: moderate | IC50 [9]: > 50 µM

CCCn1c(=O)c2sc3ccccc3c2n2c(Sc3c([N+](=O)[O-])ncn3C)nnc12 [compound 18]
GI50 [8]: 7.05 ± 0.27 µM | IC50 [9]: > 50 µM

CETFDPPLHSpTAI (CETFDPPLHS[pT]AI) [p-13mer, phospho-13mer ligand derived from the PBIP1 p-T78 motif, reference compound]
Effect on His-Plk1 kinase activity in vitro (in words) [10]: increased it
